Measured values published in PubChem BioAssay AID1421 (Emory University Molecular Libraries Screening Center, 2008).

These compounds were tested against Prostaglandin E2 receptor EP2 subtype (Homo sapiens) (UniProt P43116) (assay: EP2 receptor modulators, dose response, cell-based, human EP2, PGE2 EC50 shift (AID 1421)). Conditions: EP2-expressing cells, PGE2 EC50 shift by compound; measured here: PGE2 EC50 at 6.7 uM compound.
Prostaglandin E2 receptor EP2 subtype (Homo sapiens), sequence (P43116 whole entry, looked up): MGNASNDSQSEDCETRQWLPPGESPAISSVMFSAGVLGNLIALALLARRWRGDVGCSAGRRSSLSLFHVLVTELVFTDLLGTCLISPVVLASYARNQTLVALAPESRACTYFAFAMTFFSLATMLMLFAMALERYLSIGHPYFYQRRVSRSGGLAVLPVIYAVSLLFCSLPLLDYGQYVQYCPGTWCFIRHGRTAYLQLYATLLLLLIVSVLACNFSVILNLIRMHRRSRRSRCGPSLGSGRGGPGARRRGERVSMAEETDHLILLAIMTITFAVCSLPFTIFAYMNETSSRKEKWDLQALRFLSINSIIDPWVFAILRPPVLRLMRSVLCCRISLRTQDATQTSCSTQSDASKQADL

| Structure (SMILES) | PGE2 EC50 with compound [nM] |
| --- | --- |
| Cc1ccc(S(=O)(=O)N2c3ccccc3OCC2C(C)(C)C)cc1 (stereo not given) | 2.69 |
| CC(C)n1cc(-c2ccc(Cl)cc2)cc(C#N)c1=O | 1.21 |
| Cc1cc(-c2sccc2C)nc(-n2cccc2)n1 | 2.5 |
| COc1ccc(-c2cc(C(F)(F)F)nc(N3CCCCC3)n2)cc1OC | 0.57 |
| CC(C)CCn1c(O)c(N=NC(=O)c2ccco2)c2ccccc21 | 1.03 |
| CC(C)(C)N(Cc1ccccc1)C(=O)c1ccc(Br)o1 | 0.94 |
| CCOC(=O)c1c(-c2ccc(C)cc2)csc1NC(=O)c1ccc(N2C(=O)CCC2=O)cc1 | 1.5 |
| CCCC(=O)N1CCCC(c2nc(-c3cccs3)no2)C1 (stereo not given) | 1.2 |
| Cc1cc(C#N)c(SCC(N)=O)nc1-c1ccc(F)cc1 | 1.4 |
| Cc1ccc(Cl)cc1NC(=S)N(Cc1ccco1)C(C)c1cccs1 (stereo not given) | 1.51 |
| O=c1c2ccccc2c(=O)n(Cc2ccccc2)n1Cc1ccccc1 | 1.16 |
| CCCN(CCC)C(C)C(=O)NCC1(c2ccccc2)CCCC1 (stereo not given) | 0.94 |
| Cc1ccc(C(=O)O)cc1NC(=S)NC(=O)c1ccc(-c2ccccc2)cc1 | 0.83 |
| COc1ccccc1Nc1cc(C)nc2c(C)ccc([N+](=O)[O-])c12 | 1.12 |
| O=S(=O)(c1ccccc1)N(Cc1nc(-c2ccccc2)no1)C1CCCCC1 | 1.26 |
| Cc1ccnc(SCC(=O)n2c3c(c4ccccc42)CC(C)CC3)n1 (stereo not given) | 0.86 |
| CN(C)c1nccc(N(Cc2ccccc2)Cc2ccccc2)c1C#N | 1.16 |
| Cc1nc2ccccn2c1C(=O)CSc1ccc(Cl)cc1Cl | 1.47 |
| Cc1cccc2cc(CN(Cc3cccs3)C(c3nnnn3C3CCCC3)C(C)C)c(=O)[nH]c12 (stereo not given) | 0.99 |
| S=c1[nH]nc(Cc2ccccc2)n1Cc1ccco1 | 2.65 |

| Structure (SMILES) | PGE2 EC50 with compound [nM] |
| --- | --- |
| COc1ccc(C)cc1NC(=O)C1CC(=O)OC12CCCCC2 (stereo not given) | 0.67 |
| Cc1nc2c(c(C)nn2-c2ccccc2)c(C)c1Cl | 0.69 |
| Cc1ccccc1-n1c(Cn2c(=O)sc3ccccc32)nnc1SCC(=O)N1CCCC1 | 1.05 |
| CSc1nc2nccc(-c3ccc(-c4ccccc4)cc3)n2n1 | 0.87 |
| C=CCSc1nc(Oc2ccccc2)c2sccc2n1 | 2.43 |
| Cc1ccc(S(=O)(=O)n2c3ccc(Cl)cc3c3nc(C)sc32)cc1 | 0.44 |
| CCOC(=O)c1c(-c2ccccc2)oc2ccc(OC)cc12 | 1.04 |
| COc1ccc(-n2c(COc3ccc(Cl)cc3)nnc2SCc2ccc(C#N)cc2)cc1 | 1.22 |
| CCc1ccc(Nc2oc(C)cc(=O)c2C(C)=O)cc1 | 1.55 |
| CCCCOC(=O)Sc1nc2ccccc2o1 | 2.48 |
| CC(=O)N(Cc1cccs1)Cc1cc2ccc(C)c(C)c2nc1Cl | 1.01 |
| CCOc1ccc(OCC)c(NC(=O)CN2CCN(c3cc(C)ccc3C)CC2)c1 | 0.8 |
| COc1ccccc1/C=N/N(C(C)=O)c1nc(-c2ccc(F)cc2)cs1 | 1.1 |
| OC(Cc1ccccc1)(Cc1ccccc1)c1ccccc1 | 1.02 |
| CC(=O)CSc1ncnc2sc3c(c12)CCC(C)C3 (stereo not given) | 1.75 |
| c1ccc(-c2noc(-c3ccccc3-c3ccccc3)n2)cc1 | 0.84 |
| Cn1c(=O)c2c(SC3CCCC3)nc(C3CC3)nc2n(C)c1=O | 0.61 |
| Cc1cccc(-n2c(CCn3nc(C)c([N+](=O)[O-])c3C)n[nH]c2=S)c1 | 2.79 |
| COc1cccc(N=c2oc3c(C)ncc(CO)c3cc2C(=O)Nc2ccccc2OC)c1 | 1.48 |
| O=C(CO/N=C/c1ccccc1)N1c2ccccc2Oc2ccccc21 | 1.45 |

| Structure (SMILES) | PGE2 EC50 with compound [nM] |
| --- | --- |
| Cc1ccc(S(=O)(=O)NCC(=O)OCN2C(=O)c3ccccc3C2=O)cc1 | 1.01 |
| O=C(COC(=O)c1ccc(S(=O)(=O)N2CCCC2)cc1)Nc1ccc(F)cc1F | 1.73 |
| Cc1cc(=O)oc(C)c1C(=O)OC(C(=O)c1ccccc1)c1ccccc1 (stereo not given) | 1.57 |
| CCCc1nc(SC2CCCC2)c2c(=O)n(C)c(=O)n(C)c2n1 | 0.75 |
| COc1ccc(-c2noc(-c3ccccc3C(=O)Nc3cccnc3)n2)cc1 | 1.02 |
| CCCCCc1ccc(-c2ccc(=O)[nH]n2)cc1 | 1.44 |
| COc1ccc2c(c1)C(C)=CC(C)(C)N2S(=O)(=O)c1ccc(Br)cc1 | 0.98 |
| CC[C@@H]1Cc2cc(O)ccc2C2=C1c1ccc(O)cc1C[C@H]2CC | 0.3 |
| Cn1c(C(=O)N2CCCc3ccccc32)cc2sccc21 | 2.41 |
| C[C@H](N)[C@H](O)c1ccc(O)c(O)c1 | 1.32 |
| O=C(c1cc2sccc2n1Cc1ccccc1)N1CCCc2ccccc21 | 1.3 |
| COC(=O)c1c(NC(=O)CSc2nnc(-c3cccnc3)n2Cc2ccco2)sc(C)c1C | 0.79 |
| CC(C)OC(=O)CSc1nc(Cc2ccccc2)nc2ccccc12 | 1.14 |
| C[C@]12CCC3C(CC[C@H]4C[C@@H](Cl)CC[C@]34C)C1CCC2=O (stereo not given in full) | 0.99 |
| c1ccc(C2=Nc3ccccc3NC(c3ccccc3)C2)cc1 (stereo not given) | 2.58 |
| Cc1cc(C)c(S(=O)(=O)O)c(C)n1 | 1.25 |
| CCCc1cc(-c2n[nH]c(=S)n2Cc2ccccc2)cs1 | 1.36 |
| COC(=O)c1ccccc1NC(=O)c1cnn2c(C(F)F)cc(C3CC3)nc12 | 1.17 |
| CCCCOc1ccccc1NC(=O)c1scc2c1OCCO2 | 0.32 |
| CCSc1cc(N2CCOCC2)nc(-c2ccc(Cl)cc2)n1 | 0.69 |
